Test results from patent US20260274894A1, “CYCLIC POLYPEPTIDE COMPOUND AND USE THEREOF” (BIVISION PHARMACEUTICALS, INC., priority 2023, published 2026).
Numbered stars: 1 amine (or outer) side, 2 acyl side, 3 side chain; on linkers, the order of the positions; unused ones are H or OH. Bridge positions count the residues as written; N and C are the ends. Square brackets hold non-standard residues; d marks the D form. Side chains are listed from the residue outwards. Peptide text beside a SMILES is read from it. * marks the point of attachment. ξ: configuration not given here. Acetyl(4-DOTA-piperazinyl) = O=C(O)CN1CCN(CC(=O)O)CCN(CC(=O)N2CCN(CC(=O)*)CC2)CCN(CC(=O)O)CC1; X2 = O=C(O)CN1CCN(CC(=O)O)CCN(CC(=O)N2CCN(CCCN*)CC2)CCN(CC(=O)O)CC1; X1 = O=C(O)CN1CCN(CC(=O)O)CCN(CC(=O)CCCN*)CCN(CC(=O)O)CC1; DOTA = O=C(O)CN1CCN(CC(=O)O)CCN(CC(=O)*)CCN(CC(=O)O)CC1; Azetidine3carboxylic = O=C(C1CN([*:1])C1)[*:2]; mXylylene = c1cc(C[*:1])cc(C[*:2])c1; Cha = N[C@@H](CC1CCCCC1)C(=O)O; Dab = NCC[C@H](N)C(=O)O; Dap = NC[C@H](N)C(=O)O; Aoc = NCCCCCCCC(=O)O; CO = O=C([*:1])[*:2]; ξP = O=C(O)C1CCCN1; ξC = NC(CS)C(=O)O; NHBu = CCCCN*

How the values were obtained:
FAP protein = biological target: T1, FAP protein (Homo sapiens, UniProt Q12884); experiment: Biacore test of compound affinity to FAP protein; settings: Biacore 8K, SA chip, 15° C., 1:1 binding model; read-out: pKD (FAP) (converted)
T1 construct: purchased Sinobiological
T1 sequence (Q12884 1-760): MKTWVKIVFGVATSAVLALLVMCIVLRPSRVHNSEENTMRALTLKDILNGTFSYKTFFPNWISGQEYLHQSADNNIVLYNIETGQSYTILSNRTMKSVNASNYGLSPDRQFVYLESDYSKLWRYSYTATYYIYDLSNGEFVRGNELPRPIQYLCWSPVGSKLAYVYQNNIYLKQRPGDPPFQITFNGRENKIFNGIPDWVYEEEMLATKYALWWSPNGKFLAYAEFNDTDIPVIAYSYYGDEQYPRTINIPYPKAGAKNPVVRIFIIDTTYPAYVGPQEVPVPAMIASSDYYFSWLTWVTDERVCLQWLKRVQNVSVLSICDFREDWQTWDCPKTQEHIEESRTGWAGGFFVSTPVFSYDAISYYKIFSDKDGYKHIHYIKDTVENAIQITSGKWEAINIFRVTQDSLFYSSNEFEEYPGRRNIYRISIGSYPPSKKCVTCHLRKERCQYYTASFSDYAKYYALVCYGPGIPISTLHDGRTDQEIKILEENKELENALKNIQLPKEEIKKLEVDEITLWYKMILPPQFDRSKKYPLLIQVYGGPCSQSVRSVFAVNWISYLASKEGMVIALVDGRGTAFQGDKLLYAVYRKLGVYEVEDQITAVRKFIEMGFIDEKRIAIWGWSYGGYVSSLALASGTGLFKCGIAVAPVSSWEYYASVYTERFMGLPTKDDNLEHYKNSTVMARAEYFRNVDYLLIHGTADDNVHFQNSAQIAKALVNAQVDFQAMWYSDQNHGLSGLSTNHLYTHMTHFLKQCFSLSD
Outline: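 FAP captured on an SA chip; compounds run as analyte in single-cycle kinetics at 15° C (90 s contact, 1800 s dissociation, 30 μL/min), reference-subtracted (2-1). Sensorgrams fitted to a 1:1 binding model to give KD, reported as pKD = −log KD.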

[1] = biological target: T2, fibroblast activation protein (FAP) (Homo sapiens, UniProt Q12884); experiment: Protease inhibition (selectivity) assay, FAP, Z-Gly-Pro-AMC substrate; type: biochemical; settings: recombinant human FAP 1.2 nM
T2 sequence (Q12884 1-760): T1 sequence (Q12884 1-760)
Procedure: (§1) The specificity of the synthesized compounds for recombinant human dipeptidyl peptidase IV (DPPIV), fibroblast activation protein (FAP), or prolyl oligopeptidase (PREP) was expressed by their half-maximal inhibitory concentration (IC50) against the proteases. […] No. I-1145.0050BA) in DMSO; DPPIV: 100 mM Gly-Pro-AMC (VWR, Cat. No. 100042-646) in DMSO), and the stock solution of the substrate was subsequently diluted 20-fold using the corresponding buffer described above. • 4) The enzyme was diluted into an appropriate assay buffer. […] Column 1 (A, B, C) was prepared using 200 μL of an appropriate analysis buffer as a control. Column 1 (D, E, F, G, H) was prepared with 20 μL of an appropriate assay buffer and 180 μL of the enzyme as the inhibitor-free control. • 5) Where appropriate, 20 μL of the test compound was added from the dilution plate prepared in step 2 to columns 2-10 of the assay plate. Each sample should be tested in triplicate. It was incubated at room temperature for 10 minutes, with the plate being shaken for the first two minutes. • 6) 10 μL of the 20× substrate prepared in step 3 was added to each well and incubated at room temperature for 15 minutes, with the plate being shaken for the first two minutes. • 7) Fluorescence was read at λex:380 and λem:460.

[2] = biological target: dipeptidyl peptidase IV (DPPIV) (Homo sapiens, UniProt P27487); experiment: Protease inhibition (selectivity) assay, DPPIV, Gly-Pro-AMC substrate; type: biochemical; settings: recombinant human DPPIV 0.1 nM; read-out: pIC50 (DPPIV) (converted)
Procedure: as §1

[3] = biological target: T3, prolyl oligopeptidase (PREP) (Homo sapiens, UniProt P48147); experiment: Protease inhibition (selectivity) assay, PREP, Z-Gly-Pro-AMC substrate; type: biochemical; settings: recombinant human PREP 0.6 nM
T3 sequence (P48147 1-710): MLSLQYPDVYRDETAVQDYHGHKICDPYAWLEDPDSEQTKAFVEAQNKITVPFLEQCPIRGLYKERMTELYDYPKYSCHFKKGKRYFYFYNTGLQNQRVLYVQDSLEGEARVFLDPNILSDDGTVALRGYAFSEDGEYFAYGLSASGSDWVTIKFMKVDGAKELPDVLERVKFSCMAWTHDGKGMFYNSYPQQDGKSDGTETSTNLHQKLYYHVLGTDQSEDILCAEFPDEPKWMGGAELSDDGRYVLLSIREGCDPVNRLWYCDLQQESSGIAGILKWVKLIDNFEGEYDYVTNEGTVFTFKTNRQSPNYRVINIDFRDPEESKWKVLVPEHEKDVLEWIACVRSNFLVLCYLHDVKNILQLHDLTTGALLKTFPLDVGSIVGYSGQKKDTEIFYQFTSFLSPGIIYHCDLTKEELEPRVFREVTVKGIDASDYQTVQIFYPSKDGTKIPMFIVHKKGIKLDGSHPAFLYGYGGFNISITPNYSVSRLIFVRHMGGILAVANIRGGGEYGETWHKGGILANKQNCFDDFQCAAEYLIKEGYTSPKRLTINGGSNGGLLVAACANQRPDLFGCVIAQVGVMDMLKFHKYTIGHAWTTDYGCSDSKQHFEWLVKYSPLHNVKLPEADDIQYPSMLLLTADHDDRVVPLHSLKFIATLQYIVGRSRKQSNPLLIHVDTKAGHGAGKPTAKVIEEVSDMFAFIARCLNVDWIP
Procedure: as §1

[4] = Animal body weight after injection of ^177Lu-labeled compound; settings: Day 2
Procedure: 6- to 8-week-old (Balb/c Nude) mice were subcutaneously inoculated on the right scapula with 2×10^6 cells of HT1080 2 # (50% o Matrigel, Corning). When the tumors grew to the size as required by the assay, the animals were randomly assigned to 13 experimental groups based on tumor volume, with 5 animals per group. The body weight and tumor size were measured. On the day of grouping, administration was initiated for the control group (normal saline) and groups 1-12. General health and appearance were observed daily after the experiment began. Body weight and tumor size were measured prior to each sample collection time point. Any abnormal observations found during the entire study period were required to be recorded in the raw data.

Chain of dipeptidyl peptidase IV (DPPIV) (P27487 whole entry): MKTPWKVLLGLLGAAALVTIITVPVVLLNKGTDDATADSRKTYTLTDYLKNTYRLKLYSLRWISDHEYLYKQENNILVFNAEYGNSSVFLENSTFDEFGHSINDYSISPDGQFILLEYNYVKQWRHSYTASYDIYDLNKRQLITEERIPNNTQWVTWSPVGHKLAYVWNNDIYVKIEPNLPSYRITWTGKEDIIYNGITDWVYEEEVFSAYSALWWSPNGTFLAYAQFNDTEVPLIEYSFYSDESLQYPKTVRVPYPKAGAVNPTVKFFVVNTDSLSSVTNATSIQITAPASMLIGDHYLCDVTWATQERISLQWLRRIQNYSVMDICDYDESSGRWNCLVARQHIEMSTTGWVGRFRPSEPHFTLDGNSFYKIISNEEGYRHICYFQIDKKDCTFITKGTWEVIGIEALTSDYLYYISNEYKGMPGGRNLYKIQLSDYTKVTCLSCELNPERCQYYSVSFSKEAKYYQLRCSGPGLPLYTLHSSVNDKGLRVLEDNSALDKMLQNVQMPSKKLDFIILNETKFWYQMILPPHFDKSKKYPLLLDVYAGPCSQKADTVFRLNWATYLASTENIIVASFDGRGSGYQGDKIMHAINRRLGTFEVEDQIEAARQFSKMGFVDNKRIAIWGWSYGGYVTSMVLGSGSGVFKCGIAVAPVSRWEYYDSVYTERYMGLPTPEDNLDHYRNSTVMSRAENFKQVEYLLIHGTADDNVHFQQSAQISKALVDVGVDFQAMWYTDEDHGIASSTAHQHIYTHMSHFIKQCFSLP

Compound | Kd (FAP protein) [nM] | IC50 [1] [nM] | IC50 [2] [nM] | IC50 [3] [nM] | Animal body weight [4] [g]
CCCCCC(=O)N[C@H]1CSCc2cccc(c2)CSC[C@@H](C(=O)N[C@@H](CCC(=O)NCCNC(=O)CN2CCN(CC(=O)O)CCN(CC(=O)O)CCN(CC(=O)O)CC2)C(=O)O)NC(=O)[C@H](Cc2ccccc2)NC(=O)[C@H](CCC(N)=O)NC(=O)[C@H]([C@@H](C)O)NC(=O)[C@@H]2CCCN2C(=O)C2CN(C2)C1=O [JHDC23, Hex[Cys(3MeBn)-hhy39-Pro-Thr-Gln-Phe-Cys]-Glu-(EDA-DOTA)-OH] | 10 to 100 | < 10 | > 1000 | > 1000 | –
CCCCNC(=O)N[C@H]1CSCc2cccc(c2)CSC[C@@H](C(=O)N[C@@H](CCC(=O)NCCCC(=O)CN2CCN(CC(=O)O)CCN(CC(=O)O)CCN(CC(=O)O)CC2)C(=O)O)NC(=O)[C@H](Cc2ccccc2)NC(=O)[C@H](CCC(N)=O)NC(=O)[C@H]([C@@H](C)O)NC(=O)[C@@H]2CCCN2C(=O)C2CN(C2)C1=O [JHDC24, nBu-urea-[Cys(3MeBn)-hhy39-Pro-Thr-Gln-Phe-Cys]-Glu-(EDA-DOTA)-OH] ({NHBu-CO}-C[Azetidine3carboxylic]PTQFCE(X1)-OH; linker 1-7 via mXylylene) | 10 to 100 | < 10 | > 1000 | > 1000 | –
CCCCNC(=O)N[C@H]1CSCc2cccc(c2)CSCC(C(=O)N[C@@H](CNC(=O)CN2CCN(C(=O)CN3CCN(CC(=O)O)CCN(CC(=O)O)CCN(CC(=O)O)CC3)CC2)C(=O)O)NC(=O)[C@H](CC2CCCCC2)NC(=O)[C@H](CCC(N)=O)NC(=O)[C@H]([C@@H](C)O)NC(=O)C2CCCN2C(=O)C2CN(C2)C1=O (stereo partly drawn) [JHDC47, nBu-urea-[Cys(3MeBn)-hhy39-Pro-Thr-Gln-hhy34-Cys]-DAPA-(Ac-piperazine-DOTA)-OH] ({NHBu-CO}-C[Azetidine3carboxylic][ξP]TQ[Cha][ξC][Dap](Acetyl(4-DOTA-piperazinyl))-OH; linker 1-7 via mXylylene) | < 10 | < 10 | > 1000 | > 1000 | –
CCCCNC(=O)N[C@H]1CSCc2cccc(c2)CSC[C@@H](C(=O)N[C@@H](CCC(=O)NCCCN2CCN(C(=O)CN3CCN(CC(=O)O)CCN(CC(=O)O)CCN(CC(=O)O)CC3)CC2)C(=O)O)NC(=O)[C@H](Cc2ccccc2)NC(=O)[C@H](CCC(N)=O)NC(=O)[C@H]([C@@H](C)O)NC(=O)C2CCCN2C(=O)C2CN(C2)C1=O (stereo partly drawn) [JHDC48, nBu-urea-[Cys(3MeBn)-hhy39-Pro-Thr-Gln-Phe-Cys]-Glu-(aminopropylpiperazine-DOTA)-OH] ({NHBu-CO}-C[Azetidine3carboxylic][ξP]TQFCE(X2)-OH; linker 1-7 via mXylylene) | 10 to 100 | < 10 | > 1000 | > 1000 | –
CCCCNC(=O)N[C@H]1CSCc2cccc(c2)CSCC(C(=O)N[C@@H](CCNC(=O)CCCCCCCNC(=O)CN2CCN(CC(=O)O)CCN(CC(=O)O)CCN(CC(=O)O)CC2)C(=O)O)NC(=O)[C@H](CC2CCCCC2)NC(=O)[C@H](CCC(N)=O)NC(=O)[C@H]([C@@H](C)O)NC(=O)C2CCCN2C(=O)C2CN(C2)C1=O (stereo partly drawn) [JHDC53, nBu-urea-[Cys(3MeBn)-hhy39-Pro-Thr-Gln-hhy34-Cys]-DABA-(AOA-DOTA)-OH] ({NHBu-CO}-C[Azetidine3carboxylic][ξP]TQ[Cha][ξC][Dab]([Aoc-DOTA])-OH; linker 1-7 via mXylylene) | 10 to 100 | < 10 | > 1000 | > 1000 | –
CCCCNC(=O)N[C@H]1CSCc2cccc(c2)CSCC(C(=O)N[C@@H](CCNC(=O)CNC(=O)CN2CCN(CC(=O)O)CCN(CC(=O)O)CCN(CC(=O)O)CC2)C(=O)O)NC(=O)[C@H](CC2CCCCC2)NC(=O)[C@H](CCC(N)=O)NC(=O)[C@H]([C@@H](C)O)NC(=O)[C@@H]2CCCN2C(=O)C2CN(C2)C1=O (stereo partly drawn) [JHDC56, nBu-urea-[Cys(3MeBn)-hhy39-Pro-Thr-Gln-hhy34-Cys]-DABA-(Gly-DOTA)-OH] | < 10 | < 10 | > 1000 | > 1000 | –
CCCCNC(=O)N[C@H]1CSCc2cccc(c2)CSCC(C(=O)N[C@@H](CNC(=O)CN2CCN(C(=O)CN3CCN(CC(=O)O)CCN(CC(=O)O)CCN(CC(=O)O)CC3)CC2)C(=O)O)NC(=O)[C@H](CC2CCCCC2)NC(=O)[C@H](CCC(N)=O)NC(=O)[C@H]([C@@H](C)O)NC(=O)C2CCCN2C(=O)C2CN(C2)C1=O (stereo partly shown) [^177Lu-JHDC47, metal not drawn] ({NHBu-CO}-C[Azetidine3carboxylic][ξP]TQ[Cha][ξC][Dap](Acetyl(4-DOTA-piperazinyl))-OH; linker 1-7 via mXylylene) | – | – | – | – | 16.00 ± 0.54
